Data set [1] is described as follows: Pharmacokinetic studies in mongrel dogs, intravenous injection. The data set is classed as in vivo. The settings on record: for clearance / MRT / half-life / Vd: mongrel, dog, plasma; for clearance: read-out: CL (clearance) (converted); for MRT: read-out: MRT (Mean Residence Time); for half-life: read-out: t½ (converted); for Vd: iv. As to the method:
Pharmacokinetic experiments were carried out on six mongrel dogs weighing 18-25 kg. Dogs were housed in an animal farm and were brought to the lab repeatedly every two-three weeks for crossover experiments after an overnight fast. Each dog was inserted with a urine (Levin's tube, Pennine Healthcare, Derby, UK) and two venous (20G/32 mm Venflon 2, Ohmeda, Helsingborg, Sweden) catheters located on different legs. Dogs were fed with commercial dog food four hours after drug injection, and had free access to water during the whole experiment.
Each dog was intravenously injected with […] (10 mg/kg) of each enantiomer separately or […] of the racemate, dissolved in 2 ml of 96% ethyl alcohol. Venous blood samples (6 ml) were withdrawn via an indwelling catheter from the other leg than used for injection, and transferred into heparinized tubes. The blood samples were centrifuged at 3000 g for 10 minutes, plasma was then separated and stored at […] until analyzed. Blood collection commenced at 5 minutes, and continued up to 12 hours after injection. Urine samples were collected in 1-2 hour intervals beginning at 1 hour and up to 12 hours after injection. The urine volume was recorded and an aliquot was stored at […] until analyzed.
Assay of plasma samples: to test tubes containing 2 μg of the internal standard (diisopropyl acetamide), 0.5 ml of plasma (thawed at room temperature) and 5 ml of tert-butyl methyl ether (TBME) was added. The test tubes were vigorously vortexed for 30 sec and centrifuged at 3000 g for 10 minutes. The organic phase was separated and dried under reduced pressure using a vortex evaporator. Samples were then reconstituted with 150 μl of chloroform and dried under reduced pressure without vortexing. The sample was again reconstituted with 30 μl of chloroform, of which 2 μl were injected into the GC apparatus.
The column used for the chromatographic analysis of PID enantiomers was a Mosandl-methyl capillary column (10 m, 0.25 mm, 0.25 μm) coated with: Heptakis (2,3-di-O-methyl-6-O-tert-butyldimethylsilyl)-β-cyclodextrin as the stationary phase and nitrogen as carrier gas (takeo carbohydr res). Column head pressure was set at 50 KPa, split ratio 1:30, oven temperature 120° C., injector temperature 250° C. and detector temperature 250° C.

For data set [2], the system named is anaesthetized rats. In words: Dural plasma protein (BSA) extravasation evoked by unilateral trigeminal ganglion stimulation. The data set is classed as in vivo. The settings on record: FIG. 7. An excerpt:
The animal model used in this study is the one developed by Moskowitz et al. (F. M. Cutrer, V. Limmroth and M. A. Moskowitz: Possible mechanisms of valproate in migraine prophylaxis, Cephalalgia 17:93-100 (1997)). Moskowitz et. al. examined the plasma protein extravasation following electrical trigeminal ganglion stimulation or intravenous administration of substance P. It was concluded that in this model valproic acid blocks plasma extravasation in the meninges through GABAA-mediated postjunctional receptors probably within the meninges. […] Thus, agonists and modulators at the GABAA receptor may become useful for the development of selective drugs for migraine and cluster headache (W. S. Lee et. al.: Peripheral GABAA receptor mediated effects of sodium valproate on durnal plasma protein extravasation to substance P and trigeminal stimulation, Toward Migraine 2000, F. C. Rose Ed. Elsevier, Amsterdam, 1996, pp.289-319).
We tested the effects of PID on dural plasma protein (Bovine Serum Albumine—BSA) extravasation evoked by unilateral trigeminal gangelion stimulation in anaesthetized rats.

Setting [3] is: enantiomer given in a racemic mixture, 20 mg/kg iv.
[4] abbreviates: given as individual enantiomers, 10 mg/kg iv.
Where [5] appears, read: 10 mg/kg, given as individual enantiomers, 10 mg/kg iv, read-out: Vss.
Setting [6] is: 10 mg/kg, given as individual enantiomers, 10 mg/kg iv, read-out: Vβ (volume of distribution).
Setting [7] is: 20 mg/kg, enantiomer given in a racemic mixture, 20 mg/kg iv, read-out: Vss.
The mark [8] stands for this setting: ratio (S)-PID to (R)-PID, individual enantiomers, 10 mg/kg iv.
Setting [9] is: ratio (S)-PID to (R)-PID, racemic mixture, 20 mg/kg iv.

Each structure is given as a SMILES string. Like-named read-outs stand apart in the source and are kept apart here. Marks after values point to notes of the source that are not given here.

Turning to `CCC[C@@H](C(N)=O)C(C)C` [(R)-PID, (R)-propylisopropyl acetamide], in data set [1] (setting [3]), the “E (liver extraction ratio)” value was found to be 12.5 ± 4.0%, the Vb is 10.2 ± 0.9 L, the “fe (fraction excreted unchanged in the urine)” value worked out at 0.60 ± 0.45% and the clearance was 100 mL/min. Besides, in data set [1] (setting [3]), the MRT was 2.83 ± 0.6 h and the half-life is 1.25 ± 0.3 h. Further, in data set [1] (setting [4]), the “E (liver extraction ratio)” value was determined as 15.0 ± 4.6%, the “fe (fraction excreted unchanged in the urine)” value amounted to 0.50 ± 0.4%, the clearance was 113 mL/min and the mean residence time (MRT) came out at 2.57 ± 0.5 h. For the same compound, the half-life in data set [1] (setting [4]) is 1.37 ± 0.2 h. Further, in data set [1] (iv administration), the “clearance compared with (2S)-PID” value was “lower clearance” and the “half-life compared with (2S)-PID” value is “longer half-life”. In addition, the Vd in data set [1] (setting [5]) stood at 16 ± 1.2 L. Also, the Vd in data set [1] (setting [6]) was 13.1 ± 2.2 L. Moreover, the Vd in data set [1] (setting [7]) is 15.7 ± 1.5 L.

With `CCCC(C(N)=O)C(C)C` (stereo not drawn) [PID, propylisopropyl acetamide], the stereospecificity of kinetics entry in data set [1] (enantiomers given individually, FIG. 4) is on record as “clear stereospecific kinetics”; in data set [1] (given in a racemic mixture, FIG. 5), “no sterospecifity is observed”. Besides, the “effect on dural plasma protein extravasation” value in data set [2] is given as “has inhibitory effects on the dural plasma protein extravasation”.

With `CCC[C@H](C(N)=O)C(C)C` [(S)-PID, (S)-propylisopropyl acetamide], in data set [1] (setting [3]), the “E (liver extraction ratio)” value stood at 12.1 ± 4.1%, the Vb is 10.4 ± 1.4 L, the “fe (fraction excreted unchanged in the urine)” value came to 0.66 ± 0.46% and the clearance was 100 mL/min. Also, in data set [1] (setting [3]), the MRT was 2.87 ± 0.7 h and the half-life was 1.27 ± 0.3 h. For the same compound, in data set [1] (setting [4]), the “E (liver extraction ratio)” value is recorded as 23.7 ± 3.5%, the “fe (fraction excreted unchanged in the urine)” value was 0.40 ± 0.4%, the clearance was 188 mL/min and the MRT was 1.83 ± 0.3 h. Moreover, the half-life in data set [1] (setting [4]) is 1.04 ± 0.1 h. For the same compound, the Vd in data set [1] (setting [5]) came to 19.1 ± 2.7 L. Besides, the Vd in data set [1] (setting [6]) is 17 ± 2.9 L. Besides, the Vd in data set [1] (setting [7]) came to 15.7 ± 0.9 L. Also, in data set [1] (setting [8]), the “E S/R” value is on record as 1.58*, the “Vβ S/R” value came out at 1.29 and the “fe S/R” value is 0.78*. Also, in data set [1] (setting [9]), the “E S/R” value is 1.0, the “Vb S/R” value came to 1.0 and the “fe S/R” value is on record as 1.1.

For the origin of these results see US6969732B2, “Propylisopropyl acetic acid and propylisopropyl acetamide stereoisomers, a method for their synthesis and pharmaceutical compositions containing them” (Yissum Research Development Company of the Hebrew …, priority 1999, dated 2005).
